The source of these data is patent US20070037887A1, “Blockade of mtor to prevent a hormonal adaptive response” (University of Virginia Patent Foundation, priority 2003, published 2007).

Series [1] has as its system ERK1/2, Akt, p70S6K, PHAS-1 phosphorylation in LTED cells. The experiment in a line: EGF induced activation of MAP kinase, PI3 kinase and mTOR in LTED cells (Western). In kind it is cell-based, human. An excerpt:
FIG. 8 represents data showing the effect of FTS on EGF induced activation of MAP kinase, PI3 kinase, and mTOR in LTED cells. […] Cells were then harvested and cell lysate prepared. Phosphorylated and total kinases were detected by Western analysis using specific antibodies.
The effects of the specific growth factors, EFG and IGF-1 were also examined. Serum contains multiple growth factors that activate MAP kinase and PI3 kinase either by recruitment and activation of the common mediator Ras (such as EGF) or through a direct mechanism (such as IGF-1). To further explore the site of action of FTS, EGF-induced activation of MAPK and PI3 kinase was first examined. Specific inhibitors for PI3 kinase and mammalian target of rapamycin (mTOR) were included for comparison. […] One-hour treatment was chosen as the time point allowing most efficient comparisons among molecules.

For series [2] the following is noted: doses needed to inhibit tumor growth; cited from earlier work.
The test system of series [3] is PHAS-I. The experiment in a line: PHAS-I phosphorylation in 293T cells (SDS-PAGE mobility, PThr36/45 immunoblot). In kind it is cell-based. The settings on record: increasing concentrations, 1 h. The protocol: FIG. 11A & 11B represent data showing FTS inhibits PHAS-I phosphorylation and promotes dissociation of the mTOR-raptor complex in 293T cells. 293T cells were transfected with pcDNA3AU1-mTOR, pcDNA33HARaptor, pcDNA33HA-mLST8, and pCMV-Tag3APHAS-I (FIG. 11A). After 18 h the cells were incubated for 1 h with increasing concentrations of FTS before extracts were prepared. A sample of each extract was subjected to SDS-PAGE and immunoblotted to detect PHAS-I or PThr^36/45. AU1-mTOR was also immunoprecipitated from each extract, and immune complexes were subjected to SDSPAGE and immunoblotted with mTAb2, to detect mTOR, and with anti-HA antibodies, to detect HA-mLST8 and HA-raptor. Nontransfected 293T cells were incubated with increasing concentrations of FTS for 1 h before extracts were prepared. mTOR was immunoprecipitated with mTAb1, and samples were subjected to SDS-PAGE.
To investigate the effects of FTS on mTOR function in 293T cells, changes in the phosphorylation of PHAS-I, a well characterized target of mTOR were monitored. Phosphorylation of Ser64 and Thr69 in PHAS-I causes a dramatic decrease in the mobility of the protein in SDS-PAGE, so that changes in the mobility provide an index of changes in phosphorylation state. […]
In general terms: In western blotting, separated proteins are transferred to a membrane and probed.

Where [4] appears, read: pretreatment FTS 1 h, LY 294002 or rapamycin 3 h, EGF 1 μg/ml 1 h.

As to `CC(C)=CCC/C(C)=C/CC/C(C)=C/CSc1ccccc1C(=O)O` [FTS, farnesylthiosalicylic acid], in series [1] (EGF or IGF-1), the “growth factor induced Thr229 phosphorylation of p70 S6K” value was “very limited, if any, inhibition”. In series [1] (FTS even at 50 μM, EGF 1 μg/ml 1 h), the “EGF-induced phosphorylation of p70S6K at Thr389” value was “completely abolished”. In series [1] (setting [4]), the “EGF-induced ERK1/2 MAP kinase phosphorylation” value is given as “did not inhibit” and the “EGF-induced phosphorylation of Akt at Ser473” value is on record as “neither FTS nor rapamycin blocked”. Besides, in series [1] (serum starved 24 h, EGF), the “PHAS-1 Ser65 phosphorylation” value was “dose-dependently inhibited”. Also, in series [2], the animal weight entry was “does not cause a reduction of animal weight” and the toxicity entry was “non-toxic”. Moreover, in series [3], the “phosphorylation of PHAS-I (electrophoretic mobility)” value is reported as “decreased the phosphorylation” and the “reactivity of PHAS-I with PThr36/45 phosphospecific antibodies” value is recorded as “markedly decreased”.
